Laboratory results published in patent US12263171B2, “7-, 8-, and 10-substituted amino triazolo quinazoline derivatives as adenosine receptor antagonists, pharmaceutical compositions and their use” (Merck Sharp & Dohme LLC, priority 2018, dated 2025).

Tests used:
[1] = molecular target: human A2a adenosine receptor (Homo sapiens (Human), UniProt P29274); assay: A2a receptor affinity radioligand binding assay ([3H] SCH58261, membranes from HEK293 or CHO cells); settings: unstarred values: radioligand binding
Chain of human A2a adenosine receptor (P29274 whole entry): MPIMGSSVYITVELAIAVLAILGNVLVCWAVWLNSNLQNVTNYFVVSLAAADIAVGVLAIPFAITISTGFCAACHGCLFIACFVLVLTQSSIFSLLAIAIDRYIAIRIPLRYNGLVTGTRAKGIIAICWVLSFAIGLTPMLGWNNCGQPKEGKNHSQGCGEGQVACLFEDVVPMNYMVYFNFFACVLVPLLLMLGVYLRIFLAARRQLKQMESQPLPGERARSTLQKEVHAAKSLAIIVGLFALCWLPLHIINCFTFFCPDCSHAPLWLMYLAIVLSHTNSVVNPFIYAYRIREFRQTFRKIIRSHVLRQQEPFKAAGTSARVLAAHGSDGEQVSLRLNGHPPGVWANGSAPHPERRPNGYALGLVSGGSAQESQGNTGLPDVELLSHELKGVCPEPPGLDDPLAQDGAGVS
Experimental: The A2a receptor affinity binding assay measured the amount of binding of a tritiated ligand with high affinity for the A2a adenosine receptor to membranes made from HEK293 or CHO cells recombinantly expressing the human A2a adenosine receptor, in the presence of varying concentrations of a compound of the invention.
Measurement of A2a Binding Affinity Using Radioligand Binding
148 μL, (5 μg/mL) membranes (Perkin Elmer, Cat. No. RBHA2aM4001A) and 2 μL compounds of the invention to be tested (test compound) were transferred to individual wells of a 96-well polypropylene assay plate and incubated for 15 to 30 minutes at room temperature. [^3H] SCH58261 ((7-(2-phenylethyl)-5-amino-2-(2-furyl)-pyrazolo-[4,3-e]-1,2,4-triazolo[1,5-c]pyrimidine)) was diluted in assay buffer (50 mM Tris pH 7.4, 10 mM MgCl2, 0.005% Tween20) to a concentration of 4 nM and 50 μL transferred to each well of the assay plate. […] The assay plate was incubated at room temperature for 60 minutes with agitation. […] Filtering was achieved by aspirating the contents of the assay plate for 5 seconds, then washing and aspirating the contents three times with ice-cooled wash buffer (50 mM Tris-HCl pH 7.4, 150 mM NaCl) and allowing the vacuum manifold to dry the plate for 30 seconds. The filter plate was incubated for at least 1 hour at 55° C. and allowed to dry. The bottom of the filter plate was sealed with backing tape. 40 μL. […] The plate was incubated for at least 20 minutes, and then the amount of radioactivity remaining in each well was determined using a TopCown® (Perkin Elmer) scintillation counter. After normalization to total and non-specific binding, the percent effect at each compound concentration was calculated. The plot of percent effect versus the log of compound concentration was analyzed electronically using a 4-parameter logistic fit based on the Levenberg-Marquardt algorithm to generate IC50 values.

[2] = molecular target: human A2b adenosine receptor (Homo sapiens (Human), UniProt P29275); assay: A2b radioligand filtration binding assay (tritiated proprietary A2b antagonist, HEK293 membranes); settings: for A2B binding % inh. @ 10000 nM: unstarred; for IC50: unstarred values: radioligand binding
Chain of human A2b adenosine receptor (P29275 whole entry): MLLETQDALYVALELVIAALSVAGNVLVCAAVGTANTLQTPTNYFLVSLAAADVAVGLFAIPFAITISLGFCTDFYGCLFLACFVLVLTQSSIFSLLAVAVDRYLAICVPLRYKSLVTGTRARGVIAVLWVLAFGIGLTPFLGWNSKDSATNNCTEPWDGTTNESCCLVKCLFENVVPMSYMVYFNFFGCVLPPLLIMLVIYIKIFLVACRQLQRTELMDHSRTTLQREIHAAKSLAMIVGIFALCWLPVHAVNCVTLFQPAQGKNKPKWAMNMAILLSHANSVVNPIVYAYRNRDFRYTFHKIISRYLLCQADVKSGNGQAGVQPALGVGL
Experimental: Measurement of A2b Binding Affinity
The reported affinity of the compounds of the invention for the human A2b adenosine receptor was determined experimentally using a radioligand filtration binding assay. This assay measures the amount of binding of a tritiated proprietary A2b receptor antagonist, in the presence and absence of a compound of the invention, to membranes made from HEK293 cells recombinantly expressing the human A2b adenosine receptor (Perkin Elmer, Cat. No. ES-013-C).
The filter plate was incubated for at least 1 hour at 55° C. and allowed to dry. The bottom of the filter plate was then sealed with backing tape. […] The plates were then incubated for at least 20 minutes, and then the amount of radioactivity remaining in each well was determined using a TopCount® (Perkin Elmer) scintillation counter. After normalization to total and non-specific binding, the percent effect at each compound concentration was calculated. The plot of percent effect versus the log of compound concentration was analyzed electronically using a 4-parameter logistic fit based on the Levenberg-Marquardt algorithm to generate IC50 values.

Compound: COc1cccc2c1nc(N)n1nc(C3CCCN(c4cnn(C)c4)[C@H]3C)nc21 (stereo partly drawn) [Example 128A]
- IC50 [1]: 862 nM
- A2B binding % inh. @ 10000 nM [2]: 18% inh. @ 10000 nM

Compound: COc1cccc2c1nc(N)n1nc([C@@H]3CCCN(c4cnn(C5CCOCC5)n4)C3)nc21 [Example 72, (R)-7-methoxy-2-(1-(2-(tetrahydro-2H-pyran-4-yl)-2H-1,2,3-triazol-4-yl)piperidin-3-yl)-[1,2,4]triazolo[1,5-c]quinazolin-5-amine]
- IC50 [1]: 0.9 nM
- IC50 [2]: 119 nM

Compound: COc1cccc2c1nc(N)n1nc([C@@H]3CCCN(c4cn(C5CCOCC5)nc4C)C3)nc21 [Example 46, (R)-7-methoxy-2-(1-(3-methyl-1-(tetrahydro-2H-pyran-4-yl)-1H-pyrazol-4-yl)piperidin-3-yl)-[1,2,4]triazolo[1,5-c]quinazolin-5-amine]
- IC50 [1]: 0.4 nM
- IC50 [2]: 404 nM

Compound: COc1cccc2c1nc(N)n1nc([C@@H]3CCCN(c4cnn(C5CS(=O)(=O)C5)c4)C3)nc21 [Example 121, (R)-3-(4-(3-(5-amino-7-methoxy-[1,2,4]triazolo[1,5-c]quinazolin-2-yl)piperidin-1-yl)-1H-pyrazol-1-yl)thietane 1,1-dioxide]
- IC50 [1]: 3.6 nM
- IC50 [2]: 284 nM

Compound: COc1cccc2c1nc(N)n1nc([C@H]3CCO[C@H](c4cnn(C)c4)C3)nc21 [Example 139C]
- IC50 [1]: 101 nM
- IC50 [2]: 1820 nM

Compound: Cc1cccc2c1nc(N)n1nc(C3CCCN(c4cnn(C)c4)C3)nc21 (single isomer, unassigned) [Example 171, (R or S)-7-methyl-2-(1-(1-methyl-1H-pyrazol-4-yl)piperidin-3-yl)-[1,2,4]triazolo[1,5-c]quinazolin-5-amine]
- IC50 [1]: 34.9 nM
- IC50 [2]: 956 nM

Compound: COc1cccc2c1nc(N)n1nc([C@@H]3CCCN(c4ncn(C5CCOCC5)n4)C3)nc21 [Example 68, (R)-7-methoxy-2-(1-(1-(tetrahydro-2H-pyran-4-yl)-1H-1,2,4-triazol-3-yl)piperidin-3-yl)-[1,2,4]triazolo[1,5-c]quinazolin-5-amine]
- IC50 [1]: 0.3 nM
- IC50 [2]: 340 nM

Compound: COc1ccc2c(c1)nc(N)n1nc([C@@H]3C[C@H](C)CN(c4cnn(CC(C)(C)O)c4)C3)nc21 (single isomer, unassigned) [Example 195D]
- IC50 [1]: 0.8 nM
- IC50 [2]: 84.9 nM

Compound: COc1ccc2c(c1)nc(N)n1nc([C@H]3C[C@@H](F)CN(c4cn(CC(C)(C)O)nc4C)C3)nc21 [Example 197A, 1-(4-((3S,5R)-3-(5-amino-8-methoxy-[1,2,4]triazolo[1,5-c]quinazolin-2-yl)-5-fluoropiperidin-1-yl)-3-methyl-1H-pyrazol-1-yl)-2-methylpropan-2-ol]
- IC50 [1]: 99 nM
- A2B binding % inh. @ 10000 nM [2]: 31% inh. @ 10000 nM

Compound: COc1cccc2c1nc(N)n1nc([C@@H]3CCCN(c4cnn([C@@H]5CCNC5)c4)C3)nc21 [Example 45, 7-methoxy-2-((R)-1-(1-((R)-pyrrolidin-3-yl)-1H-pyrazol-4-yl)piperidin-3-yl)-[1,2,4]triazolo[1,5-c]quinazolin-5-amine]
- IC50 [1]: 2.6 nM
- IC50 [2]: 350 nM

Compound: COc1c(Cl)ccc2c1nc(N)n1nc(C3CCCN(c4cnn(C)c4)C3)nc21 (single isomer, unassigned) [Example 173, (R or S)-8-chloro-7-methoxy-2-(1-(1-methyl-1H-pyrazol-4-yl)piperidin-3-yl)-[1,2,4]triazolo[1,5-c]quinazolin-5-amine]
- IC50 [1]: 3.6 nM
- IC50 [2]: 403 nM

Compound: COc1cccc2c1nc(N)n1nc([C@@H]3CCCN(c4cnn(CC(C)(C)O)c4C)C3)nc21 [Example 33, (R)-1-(4-(3-(5-amino-7-methoxy-[1,2,4]triazolo[1,5-c]quinazolin-2-yl)piperidin-1-yl)-5-methyl-1H-pyrazol-1-yl)-2-methylpropan-2-ol]
- IC50 [1]: 0.1 nM
- IC50 [2]: 320 nM

Compound: COc1cccc2c1nc(N)n1nc([C@@H]3CCCN(c4cnn([C@H]5CCCC[C@H]5O)c4)C3)nc21 [Example 24, (1R,2S)-2-(4-((R)-3-(5-amino-7-methoxy-[1,2,4]triazolo[1,5-c]quinazolin-2-yl)piperidin-1-yl)-1H-pyrazol-1-yl)cyclohexan-1-ol]
- IC50 [1]: 2.9 nM
- IC50 [2]: 6.9 nM

Compound: COc1cccc2c1nc(N)n1nc(C3CCC(C)N(c4cnn(CC(C)(C)O)c4)C3)nc21 (single isomer, unassigned) [Example 143D]
- IC50 [1]: 0.5 nM
- IC50 [2]: 16.2 nM

Compound: COc1cccc2c1nc(N)n1nc([C@@H]3CCCN(c4cnn(C5CCOC5)c4)C3)nc21 (single isomer, unassigned) [Example 57A]
- IC50 [1]: 0.4 nM
- IC50 [2]: 70.5 nM

Compound: COc1cccc2c1nc(N)n1nc([C@H]3CCC[C@@H](c4cnn(C)c4)C3)nc21 (single isomer, unassigned) [Example 136C]
- IC50 [1]: 1.2 nM
- IC50 [2]: 157 nM

Compound: COc1cccc2c1nc(N)n1nc([C@@H]3CCCN(c4cnn(C5CCOCC5)c4C(F)F)C3)nc21 [Example 49, (R)-2-(1-(5-(difluoromethyl)-1-(tetrahydro-2H-pyran-4-yl)-1H-pyrazol-4-yl)piperidin-3-yl)-7-methoxy-[1,2,4]triazolo[1,5-e]quinazolin-5-amine]
- IC50 [1]: 0.2 nM
- IC50 [2]: 36 nM

Compound: C[C@H]1CC[C@@H](c2nc3c4ccc(Cl)cc4nc(N)n3n2)CN1c1cnn(CC(C)(C)O)c1 [Example 203, 1-(4-((2S,5R)-5-(5-amino-8-chloro-[1,2,4]triazolo[1,5-c]quinazolin-2-yl)-2-methylpiperidin-1-yl)-1H-pyrazol-1-yl)-2-methylpropan-2-ol]
- IC50 [1]: 0.7 nM
- IC50 [2]: 1.7 nM

Compound: COc1cccc2c1nc(N)n1nc([C@@H]3CCCN(c4ccc(F)cn4)C3)nc21 [Example 115, (R)-2-(1-(5-fluoropyridin-2-yl)piperidin-3-yl)-7-methoxy-[1,2,4]triazolo[1,5-c]quinazolin-5-amine]
- IC50 [1]: 1.2 nM
- IC50 [2]: 59.1 nM

Compound: COc1ccc2c(c1)nc(N)n1nc([C@@H]3CCCN(c4ccc(C(C)=O)cc4)C3)nc21 [Example 193, (R)-1-(4-(3-(5-amino-8-methoxy-[1,2,4]-triazolo[1,5-c]quinazolin-2-yl)piperidin-1-yl)phenyl)ethan-1-one]
- IC50 [1]: 2.2 nM
- IC50 [2]: 130 nM

Compound: COc1ccc2c(c1)nc(N)n1nc([C@H]3C[C@H](C)CN(c4cnn(CC(C)(C)O)c4)C3)nc21 [Example 195C]
- IC50 [1]: 281 nM
- IC50 [2]: 9440 nM

Compound: COc1ccc2c(c1)nc(N)n1nc([C@@H]3CCCN(c4cnc(OC(F)F)c(C)c4)C3)nc21 [Example 190, (R)-2-(1-(6-(difluoromethoxy)-5-methylpyridin-3-yl)piperidin-3-yl)-8-methoxy-[1,2,4]triazolo[1,5-c]quinazolin-5-amine]
- IC50 [1]: 10.1 nM
- IC50 [2]: 480 nM

Compound: COc1cccc2c1nc(N)n1nc([C@@H]3CCO[C@@H](c4cnn(C)c4)C3)nc21 [Example 139B]
- IC50 [1]: 3.2 nM
- IC50 [2]: 1910 nM

Compound: COc1cccc2c1nc(N)n1nc([C@@H]3CCCN(c4cn(CC(C)(C)O)nc4C(F)(F)F)C3)nc21 [Example 52, (R)-1-(4-(3-(5-amino-7-methoxy-[1,2,4]triazolo[1,5-c]quinazolin-2-yl)piperidin-1-yl)-3-(trifluoromethyl)-1H-pyrazol-1-yl)-2-methylpropan-2-ol]
- IC50 [1]: 0.4 nM
- IC50 [2]: 350 nM

Compound: COc1cccc2c1nc(N)n1nc([C@@H]3CCCN(c4cncc(C(F)(F)F)n4)C3)nc21 [Example 104, (R)-7-methoxy-2-(1-(6-(trifluoromethyl)pyrazin-2-yl)piperidin-3-yl)-[1,2,4]triazolo[1,5-c]quinazolin-5-amine]
- IC50 [1]: 0.1 nM
- IC50 [2]: 3330 nM

Compound: COc1ccc2c(c1)nc(N)n1nc([C@@H]3CCCN(c4cn(CC(C)(C)O)nc4C)C3)nc21 [Example 180, (R)-1-(4-(3-(5-amino-8-methoxy-[1,2,4]triazolo[1,5-c]quinazolin-2-yl)piperidin-1-yl)-3-methyl-1H-pyrazol-1-yl)-2-methylpropan-2-ol]
- IC50 [1]: 1 nM
- IC50 [2]: 250 nM

Compound: COc1ccc2c(c1)nc(N)n1nc([C@@H]3CCCN(c4cnn([C@@H](C)C(C)(C)O)c4C)C3)nc21 [Example 189B, (S)-3-(4-((R)-3-(5-amino-8-methoxy-[1,2,4]triazolo[1,5-c]quinazolin-2-yl)piperidin-1-yl)-5-methyl-1H-pyrazol-1-yl)-2-methylbutan-2-ol]
- IC50 [1]: 0.7 nM
- IC50 [2]: 291 nM
